Assay results: EP4678638A1, “NEW E3 UBIQUITIN LIGASE LIGAND, PROTEIN DEGRADATION AGENT AND USE THEREOF” (priority 2023, dated 2024)
Like-named read-outs stand apart in the source and are kept apart here.

How the values were obtained:
[1] = tested on: H1975; test: CCK-8 proliferation, NCI-H1975 (H1975); format: cell-based, Human; settings: Homo sapiens, read-out: Inhibitory activity (IC50) on tumor cell proliferation, H1975
Procedure, shortened: (§1)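 Cells seeded, then after 24 h treated with 10 concentrations (top 10 µM, 5-fold serial dilution) for a line-specific time at 37°C, 5% CO2. Viability read by CCK-8; IC50 fitted from growth-inhibition curves.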

[2] = molecular target: T1, CDK6 (Homo sapiens, UniProt Q00534); test: Western blot degradation of CDK6 (MDA-MB-231 Cell); format: cell-based; settings: Table D3
T1 construct: evaluate the effects of the compounds of the present disclosure on the expression of target proteins in cells; endogenous in cells; host or cells: MDA-MB-231
Procedure, shortened: (§2)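 Quantification by ImageJ densitometry of Western blot bands: DC50 is the fitted concentration halving band intensity relative to DMSO. Percent remaining uses internal-control normalization, and degradation rate is its complement.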

[3] = tested on: MM.1R; test: CCK-8 proliferation, MM.1R; format: cell-based; settings: CCK-8, 72 hours, read-out: Inhibitory activity (IC50) on tumor cell proliferation, MM.1R
Description: (§3) The tumor cells used herein were cultured in a cell culture medium listed in table A1 at 37°C in an incubator with 5% CO2. Prior to experimentation, all cell lines used were correctly identified by STR profiling, and tested negative for mycoplasma contamination using a mycoplasma detection kit through routine screenings. Table A1. Tumor cells and cell culture medium used in the present disclosure
(§4) IC50 values of the compounds of the present disclosure (including the compounds in Table 1, and compounds of examples) were measured using the Meilun Cell Counting Kit-8 kit from Dalian Meilun Biotech Co., Ltd. Assay details are as follows: tumor cells were seeded in a 96-well plate at a density listed in Table A2. After 24h, 100 µL of the inoculated cells were treated with 0.5µL of the compounds of the present disclosure (including the compounds in Tables 1 and 2, and compounds of examples) at 10 different successively decreasing concentrations (starting at the highest concentration of 10µM; 5-fold serial dilutions). After the cells were treated with the compounds of the present disclosure for a period of time, the cell viability detection reagent was added to the culture medium for cell viability assessment according to the instructions provided with the CCK-8 kit. […] The growth inhibition of the compounds of the present disclosure on cells was plotted by Prism Graphpad software, and the IC50 values of the compounds of the present disclosure were calculated therefrom. […] Seeding protocol and treatment time for tumor cells

[4] = tested on: CCRF-CEM; test: CCK-8 proliferation, CCRF-CEM; format: cell-based, Human; settings: Homo sapiens, CCRF-CEM; CCK-8; 96 hours; read-out: Inhibitory activity (IC50) on tumor cell proliferation, CCRF-CEM
Procedure, shortened: as §1

[5] = molecular target: T2, CDK4 (Homo sapiens, UniProt P11802); test: Western blot degradation of CDK4 (MDA-MB-231 Cell); format: cell-based; settings: Table D3
T2 construct: evaluate the effects of the compounds of the present disclosure on the expression of target proteins in cells; endogenous in cells; host or cells: MDA-MB-231
Procedure, shortened: as §2

[6] = molecular target: T3, human Cereblon WT GST-tagged protein (Homo sapiens, UniProt Q96SW2); test: CRBN binding, HTRF (CEREBLON BINDING kit); settings: Table II-2, CRBN binding screening, HTRF; for inhibition at 0.5 µM: read-out: Inhibition rate (%) at 0.5µM; for inhibition at 2 µM: read-out: Inhibition rate (%) at 2 µM
T3 construct: purchased CISBIO 64BDCRBNPEH
Procedure, shortened: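 After 3 h at room temperature, emission at 665 and 620 nm was measured in a homogeneous time-resolved fluorescence format. Compounds competed with a Thalidomide-Re probe for GST-tagged wild-type human CRBN, which was labelled with a Eu anti-GST antibody.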

[7] = tested on: MM.1S; test: CCK-8 proliferation, MM.1S; format: cell-based; settings: Homo sapiens, MM1.S; CCK-8; 72 hours; read-out: Inhibitory activity (IC50) on tumor cell proliferation, MM1S
Procedure, shortened: as §1

[8] = tested on: Kasumi-1; test: CCK-8 proliferation, Kasumi-1; format: cell-based, Human; settings: Homo sapiens, Kasumi 1, 72 hours, read-out: Inhibitory activity (IC50) on tumor cell proliferation, Kasumi-1
Description: as §3, §4

[9] = tested on: SR; test: CCK-8 proliferation, SR; format: cell-based, Human; settings: Homo sapiens, SR; CCK-8; 72 hours; read-out: Inhibitory activity (IC50) on tumor cell proliferation, SR
Procedure, shortened: as §1

[10] = tested on: MCF7; test: CCK-8 proliferation, MCF7 (MCF-7); format: cell-based; settings: Homo sapiens, MCF7; CCK-8; read-out: Inhibitory activity (IC50) on tumor cell proliferation, MCF7
Procedure, shortened: as §1

[11] = tested on: MV-4-11; test: CCK-8 proliferation, MV-4-11; format: cell-based, Human; settings: Homo sapiens, MV4-11; CCK-8; 72 or 96 hours; read-out: Inhibitory activity (IC50) on tumor cell proliferation, MV-4-11
Procedure, shortened: as §1

[12] = tested on: 22RV1; test: CCK-8 proliferation, 22RV1; format: cell-based; settings: Homo sapiens, 96 hours, read-out: Inhibitory activity (IC50) on tumor cell proliferation, 22RV1
Description: as §3, §4

T3 sequence (Q96SW2 whole entry): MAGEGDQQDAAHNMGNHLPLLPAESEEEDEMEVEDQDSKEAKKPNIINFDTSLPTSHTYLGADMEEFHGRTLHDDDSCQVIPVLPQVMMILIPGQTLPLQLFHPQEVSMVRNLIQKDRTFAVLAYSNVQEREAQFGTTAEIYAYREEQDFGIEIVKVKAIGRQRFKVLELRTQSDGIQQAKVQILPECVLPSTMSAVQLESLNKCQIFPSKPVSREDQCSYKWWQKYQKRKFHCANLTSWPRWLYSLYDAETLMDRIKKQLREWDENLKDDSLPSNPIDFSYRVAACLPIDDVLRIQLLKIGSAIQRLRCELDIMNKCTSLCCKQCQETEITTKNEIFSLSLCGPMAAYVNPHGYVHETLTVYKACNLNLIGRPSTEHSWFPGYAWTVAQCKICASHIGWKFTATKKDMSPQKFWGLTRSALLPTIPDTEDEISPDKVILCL
T2 sequence (P11802 whole entry): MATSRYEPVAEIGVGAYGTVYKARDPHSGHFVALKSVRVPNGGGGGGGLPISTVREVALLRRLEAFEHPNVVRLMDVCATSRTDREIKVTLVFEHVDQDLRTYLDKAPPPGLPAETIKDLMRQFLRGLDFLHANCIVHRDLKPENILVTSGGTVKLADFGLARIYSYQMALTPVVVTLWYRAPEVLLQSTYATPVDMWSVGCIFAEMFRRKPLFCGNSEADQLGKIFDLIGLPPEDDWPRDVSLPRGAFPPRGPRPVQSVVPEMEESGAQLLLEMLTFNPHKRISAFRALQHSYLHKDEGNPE
T1 sequence (Q00534 whole entry): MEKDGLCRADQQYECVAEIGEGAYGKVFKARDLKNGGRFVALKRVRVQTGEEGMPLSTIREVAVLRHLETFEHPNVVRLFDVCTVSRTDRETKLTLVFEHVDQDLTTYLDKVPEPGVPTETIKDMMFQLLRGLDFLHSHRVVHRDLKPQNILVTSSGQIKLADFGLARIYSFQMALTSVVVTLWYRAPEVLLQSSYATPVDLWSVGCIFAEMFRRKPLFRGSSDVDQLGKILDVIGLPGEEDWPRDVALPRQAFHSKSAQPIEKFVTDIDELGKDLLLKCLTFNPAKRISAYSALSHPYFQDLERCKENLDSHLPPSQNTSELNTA

Row | Structure (SMILES) | IC50 ([1]; NCI-H1975, CCK-8, 96 hours) | Degradation of substrate protein CDK6 (substrate protein remaining %) [2] | IC50 [3] | IC50 [4] | Degradation of substrate protein CDK4 (substrate protein remaining %) [5] | inhibition at 0.5 µM [6] | inhibition at 2 µM [6] | IC50 [7] | IC50 [8] | IC50 [9] | IC50 [10] | IC50 [11] | IC50 [12] | IC50 ([1]; NCI-H1975, 96 h)
1 | Cc1nc2c(F)cc(-c3nc(Nc4ccc(N5CCC(N6CCN(Cc7ccc(C8CCC(=O)NC8=O)cc7)CC6)CC5)cn4)ncc3F)cc2n1C(C)C (stereo not drawn) [GT-03905, 3-(4-((4-(1-(6-((5-fluoro-4-(4-fluoro-1-isopropyl-2-methyl-1H-benzo[d]imidazol-6-yl)pyrimidin-2-yl)amino)pyridin-3-yl)piperidin-4-yl)piperazin-1-yl)methyl)phenyl)piperidine-2,6-dione] | 100 to 500 nM | A (A is defined as 0% ≤ substrate protein remaining % ≤ 80%) | 50 to 100 nM | 100 to 500 nM | A (A is defined as 0% ≤ substrate protein remaining % ≤ 80%) | 40 to 53% | 53 to 60% | 50 to 100 nM | 50 to 100 nM |  |  |  |  | 
2 | Cc1nc2c(F)cc(-c3nc(Nc4ccc(N5CCC(N6CCN(Cc7ccc(C8CCC(=O)NC8=O)c(F)c7)CC6)CC5)cn4)ncc3F)cc2n1C(C)C (stereo not drawn) [GT-03906, 3-(2-fluoro-4-((4-(1-(6-((5-fluoro-4-(4-fluoro-1-isopropyl-2-methyl-1H-benzo[d]imidazol-6-yl)pyrimidin-2-yl)amino)pyridin-3-yl)piperidin-4-yl)piperazin-1-yl)methyl)phenyl)piperidine-2,6-dione] | 100 to 500 nM | A (A is defined as 0% ≤ substrate protein remaining % ≤ 80%) | 50 to 100 nM | 100 to 500 nM | A (A is defined as 0% ≤ substrate protein remaining % ≤ 80%) |  |  | 10 to 50 nM | 50 to 100 nM | 50 to 100 nM | 100 to 500 nM |  |  | 
3 | CC(=O)c1c(C)c2cnc(Nc3ccc(N4CCC(N5CCN(Cc6ccc(C7CCC(=O)NC7=O)cc6)CC5)CC4)cn3)nc2n(C2CCCC2)c1=O (stereo not drawn) [GT-06659, 3-(4-((4-(1-(6-((6-acetyl-8-cyclopentyl-5-methyl-7-oxo-7,8-dihydropyrido[2,3-d]pyrimidin-2-yl)amino)pyridin-3-yl)piperidin-4-yl)piperazin-1-yl)methyl)phenyl)piperidine-2,6-dione] |  | A (A is defined as 0% ≤ substrate protein remaining % ≤ 80%) |  | 100 to 500 nM | A (A is defined as 0% ≤ substrate protein remaining % ≤ 80%) |  |  |  | 100 to 500 nM |  | 100 to 500 nM | 100 to 500 nM | 10 to 50 nM | 
4 | Cc1nc2c(F)cc(-c3nc(Nc4ccc(CN5CCN(Cc6ccc(C7CCC(=O)NC7=O)cc6)CC5)cn4)ncc3F)cc2n1C(C)C (stereo not drawn) [GT-06664, 3-(4-((4-((6-((5-fluoro-4-(4-fluoro-1-isopropyl-2-methyl-1H-benzo[d]imidazol-6-yl)pyrimidin-2-yl)amino)pyridin-3-yl)methyl)piperazin-1-yl)methyl)phenyl)piperidine-2,6-dione] | 500 to 1000 nM | B (B is defined as substrate protein remaining % > 80%) |  | 500 to 1000 nM | A (A is defined as 0% ≤ substrate protein remaining % ≤ 80%) |  |  |  | 100 to 500 nM | 100 to 500 nM |  | 10 to 50 nM | 50 to 100 nM | 
5 | Cc1nc2c(F)cc(-c3nc(Nc4ccc(CN5CCN(Cc6ccc(N7CCC(=O)NC7=O)cn6)CC5)cn4)ncc3F)cc2n1C(C)C [GT-06667, 1-(6-((4-((6-((5-fluoro-4-(4-fluoro-1-isopropyl-2-methyl-1H-benzo[d]imidazol-6-yl)pyrimidin-2-yl)amino)pyridin-3-yl)methyl)piperazin-1-yl)methyl)pyridin-3-yl)dihydropyrimidine-2,4(1H,3H)-dione] |  | A (A is defined as 0% ≤ substrate protein remaining % ≤ 80%) |  | 100 to 500 nM | A (A is defined as 0% ≤ substrate protein remaining % ≤ 80%) |  |  |  | 100 to 500 nM | 100 to 500 nM | 100 to 500 nM | 10 to 50 nM | 50 to 100 nM | 
6 | Cc1nc2c(F)cc(-c3nc(Nc4ccc(N5CCC(N6CCN(Cc7ccc(N8CCC(=O)NC8=O)nc7)CC6)CC5)cn4)ncc3F)cc2n1C(C)C [GT-06742, 1-(5-((4-(1-(6-((5-fluoro-4-(4-fluoro-1-isopropyl-2-methyl-1H-benzo[d]imidazol-6-yl)pyrimidin-2-yl)amino)pyridin-3-yl)piperidin-4-yl)piperazin-1-yl)methyl)pyridin-2-yl)dihydropyrimidine-2,4(1H,3H)-dione] | 100 to 500 nM |  |  | 50 to 100 nM |  |  |  | 100 to 500 nM | 100 to 500 nM | 10 to 50 nM | 10 to 50 nM | 10 to 50 nM | 10 to 50 nM | 
7 | Cc1nc2c(F)cc(-c3nc(Nc4ccc(N5CCC(N6CCN(Cc7cc(N8CCC(=O)NC8=O)ncc7F)CC6)CC5)cn4)ncc3F)cc2n1C(C)C [GT-07486, 1-(5-fluoro-4-((4-(1-(6-((5-fluoro-4-(4-fluoro-1-isopropyl-2-methyl-1H-benzo[d]imidazol-6-yl)pyrimidin-2-yl)amino)pyridin-3-yl)piperidin-4-yl)piperazin-1-yl)methyl)pyridin-2-yl)dihydropyrimidine-2,4(1H,3H)-dione] | 50 to 100 nM |  |  | 100 to 500 nM |  |  |  | 50 to 100 nM |  |  | 50 to 100 nM |  | 10 to 50 nM | 
8 | Cc1nc2c(F)cc(-c3nc(Nc4ccc(N5CCC(N6CCN(Cc7ccnc(N8CCC(=O)NC8=O)c7)CC6)CC5)cn4)ncc3F)cc2n1C(C)C [GT-07487, 1-(4-((4-(1-(6-((5-fluoro-4-(4-fluoro-1-isopropyl-2-methyl-1H-benzo[d]imidazol-6-yl)pyrimidin-2-yl)amino)pyridin-3-yl)piperidin-4-yl)piperazin-1-yl)methyl)pyridin-2-yl)dihydropyrimidine-2,4(1H,3H)-dione] | 50 to 100 nM |  |  | 50 to 100 nM |  | 30 to 40% | 53 to 60% | 10 to 50 nM |  |  | 10 to 50 nM |  | 10 to 50 nM | 
9 | CCN1CCN(Cc2ccc(Nc3ncc(F)c(-c4cc(F)c5nc(C)n(C(C)C)c5c4)n3)nc2)CC1 [abemaciclib, reference compound] |  |  |  | 1000 to 5000 nM |  |  |  | 1000 to 5000 nM | 500 to 1000 nM | 500 to 1000 nM | 1000 to 5000 nM | 50 to 100 nM | 10 to 50 nM | 1000 to 5000 nM
